Key:
[1] = Clearance of compound in rat was evaluated; assay type: ADME, organism-based; details: in vivo
[2] = Bioavailability in rat; assay type: ADME, organism-based; details: in vivo
Integrin alpha-4/beta-1 [3] = target: T1, Integrin alpha-4/beta-1 (Homo sapiens, UniProt P05556+P13612); test: Inhibition of [Ca2+]/Mg2+ unactivated state of very late antigen 4 (VLA-4); assay type: protein-complex assay
Integrin alpha-4/beta-1 [4] = target: T1, Integrin alpha-4/beta-1; test: Inhibition of Mn2+ activated state of very late antigen 4 (VLA-4); assay type: protein-complex assay
Integrin alpha-4/beta-7 = target: T2, Integrin alpha-4/beta-7 (Homo sapiens, UniProt P13612+P26010); test: Inhibition of Mn2+ activated state of alpha4-beta7 integrin; assay type: protein-complex assay
T2 sequence (P13612 whole entry): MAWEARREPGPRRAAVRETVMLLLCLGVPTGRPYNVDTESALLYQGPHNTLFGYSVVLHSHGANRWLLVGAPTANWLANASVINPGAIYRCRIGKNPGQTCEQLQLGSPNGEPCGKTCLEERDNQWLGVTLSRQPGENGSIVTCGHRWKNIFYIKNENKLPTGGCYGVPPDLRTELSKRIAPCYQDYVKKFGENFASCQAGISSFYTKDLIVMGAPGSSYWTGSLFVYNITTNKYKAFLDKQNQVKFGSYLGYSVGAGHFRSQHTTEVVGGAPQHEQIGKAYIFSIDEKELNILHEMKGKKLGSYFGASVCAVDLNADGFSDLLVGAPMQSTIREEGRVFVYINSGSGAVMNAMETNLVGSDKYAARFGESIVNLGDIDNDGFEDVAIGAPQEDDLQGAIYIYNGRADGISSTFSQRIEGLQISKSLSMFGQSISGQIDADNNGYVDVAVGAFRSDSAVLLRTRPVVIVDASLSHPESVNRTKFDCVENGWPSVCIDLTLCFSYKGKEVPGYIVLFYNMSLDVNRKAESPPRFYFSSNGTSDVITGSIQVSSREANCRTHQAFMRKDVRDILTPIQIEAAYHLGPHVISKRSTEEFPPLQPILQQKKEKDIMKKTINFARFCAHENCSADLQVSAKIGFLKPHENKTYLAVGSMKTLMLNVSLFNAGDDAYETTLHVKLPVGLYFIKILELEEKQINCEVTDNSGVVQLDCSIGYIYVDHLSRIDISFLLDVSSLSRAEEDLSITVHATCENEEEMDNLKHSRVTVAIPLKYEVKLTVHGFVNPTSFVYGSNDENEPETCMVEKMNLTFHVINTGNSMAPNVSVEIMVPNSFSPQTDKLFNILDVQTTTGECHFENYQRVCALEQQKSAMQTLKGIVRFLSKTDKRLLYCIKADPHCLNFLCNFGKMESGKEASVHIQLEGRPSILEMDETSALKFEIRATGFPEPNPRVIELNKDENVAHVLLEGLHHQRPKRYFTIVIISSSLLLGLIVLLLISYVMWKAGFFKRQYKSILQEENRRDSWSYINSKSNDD
T2 sequence (P26010 whole entry): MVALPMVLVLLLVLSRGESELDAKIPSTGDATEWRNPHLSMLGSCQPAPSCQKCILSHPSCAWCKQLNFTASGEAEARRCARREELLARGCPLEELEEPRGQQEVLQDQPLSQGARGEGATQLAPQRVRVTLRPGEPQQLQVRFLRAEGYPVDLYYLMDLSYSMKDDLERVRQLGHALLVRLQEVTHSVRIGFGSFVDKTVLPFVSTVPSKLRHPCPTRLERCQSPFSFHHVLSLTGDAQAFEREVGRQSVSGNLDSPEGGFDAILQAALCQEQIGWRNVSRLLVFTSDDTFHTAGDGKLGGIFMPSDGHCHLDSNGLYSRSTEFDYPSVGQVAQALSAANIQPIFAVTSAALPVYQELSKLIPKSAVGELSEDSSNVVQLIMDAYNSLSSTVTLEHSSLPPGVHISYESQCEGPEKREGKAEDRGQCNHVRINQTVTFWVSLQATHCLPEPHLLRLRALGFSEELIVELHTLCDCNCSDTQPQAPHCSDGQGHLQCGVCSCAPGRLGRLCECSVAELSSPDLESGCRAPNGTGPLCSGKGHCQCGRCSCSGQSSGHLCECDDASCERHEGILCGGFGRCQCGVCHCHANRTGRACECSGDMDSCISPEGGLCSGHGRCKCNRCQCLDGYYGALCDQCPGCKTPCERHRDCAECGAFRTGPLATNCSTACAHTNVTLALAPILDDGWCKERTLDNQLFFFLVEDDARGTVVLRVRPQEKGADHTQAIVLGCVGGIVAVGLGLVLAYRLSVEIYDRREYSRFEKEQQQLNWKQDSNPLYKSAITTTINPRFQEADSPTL

T1 sequence (P05556 whole entry, one chain of several): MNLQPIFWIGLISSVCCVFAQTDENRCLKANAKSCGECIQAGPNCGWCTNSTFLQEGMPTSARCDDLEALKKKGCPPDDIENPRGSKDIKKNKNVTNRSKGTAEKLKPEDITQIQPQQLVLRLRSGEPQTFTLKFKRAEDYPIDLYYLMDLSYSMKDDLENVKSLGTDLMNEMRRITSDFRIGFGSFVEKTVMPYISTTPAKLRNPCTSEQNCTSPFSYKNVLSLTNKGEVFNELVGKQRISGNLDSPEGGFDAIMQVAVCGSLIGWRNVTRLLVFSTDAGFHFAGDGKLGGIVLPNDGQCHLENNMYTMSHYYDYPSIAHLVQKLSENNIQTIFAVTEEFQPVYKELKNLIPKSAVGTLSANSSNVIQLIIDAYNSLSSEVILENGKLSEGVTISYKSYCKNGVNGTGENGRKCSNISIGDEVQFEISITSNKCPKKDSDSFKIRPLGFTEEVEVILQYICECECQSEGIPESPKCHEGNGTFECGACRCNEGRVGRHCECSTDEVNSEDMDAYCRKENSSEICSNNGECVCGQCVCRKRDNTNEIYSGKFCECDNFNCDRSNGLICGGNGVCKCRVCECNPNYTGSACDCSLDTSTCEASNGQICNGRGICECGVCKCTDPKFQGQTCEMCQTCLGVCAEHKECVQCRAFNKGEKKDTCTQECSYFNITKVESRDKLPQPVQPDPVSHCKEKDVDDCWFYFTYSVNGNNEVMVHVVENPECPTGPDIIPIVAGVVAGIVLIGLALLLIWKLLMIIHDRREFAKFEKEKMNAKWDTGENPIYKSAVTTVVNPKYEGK

| SMILES | clearance [1] | bioavailability [2] | IC50 (Integrin alpha-4/beta-1 [3]) | IC50 (Integrin alpha-4/beta-1 [4]) | IC50 (Integrin alpha-4/beta-7) |
| --- | --- | --- | --- | --- | --- |
| O=C(O)[C@H](Cc1ccc2nc(-c3c(Cl)cccc3Cl)oc2c1)NC(=O)[C@@H]1CCN1S(=O)(=O)c1cc(Cl)cc(Cl)c1 | 24 mL/min/kg | 8% | 33 nM | 1.7 nM | 1690 nM |
| O=C(N[C@@H](Cc1ccc2[nH]c(-c3c(Cl)cccc3Cl)nc2c1)C(=O)O)c1c(Cl)cccc1Cl | 24 mL/min/kg | 1.2% | 22 nM | 0.69 nM | 3.2 nM |
| O=C(N[C@@H](Cc1ccc2oc(-c3c(Cl)cccc3Cl)nc2c1)C(=O)O)c1c(Cl)cccc1Cl | 9 mL/min/kg | 20% | 52 nM | 0.79 nM | 5.5 nM |
| COc1cccc(OC)c1-c1ccc(C[C@H](NC(=O)[C@]2(C)CCN2S(=O)(=O)c2cc(Cl)cc(Cl)c2)C(=O)O)cc1 | 97 mL/min/kg |  | 0.27 nM |  |  |
| O=C(Nc1ccc(C[C@H](NC(=O)[C@@H]2CCN2S(=O)(=O)c2cc(Cl)cc(Cl)c2)C(=O)O)cc1)c1c(Cl)cccc1Cl | 33 mL/min/kg | 0.7% | 0.31 nM | 0.27 nM | 22 nM |
| O=C(O)[C@H](Cc1ccc2[nH]c(-c3c(Cl)cccc3Cl)nc2c1)NC(=O)[C@@H]1CCN1S(=O)(=O)c1cc(Cl)cc(Cl)c1 | 21 mL/min/kg | 0.3% | 1.8 nM | 0.54 nM | 105 nM |
| O=C(N[C@@H](Cc1ccc2oc(-c3c(Cl)cccc3Cl)nc2c1)C(=O)O)c1c(Cl)cncc1Cl | 25 mL/min/kg | 25% | 21 nM | 0.34 nM | 4.3 nM |
| O=C(O)[C@H](Cc1ccc2oc(-c3c(Cl)cccc3Cl)nc2c1)NC(=O)[C@@H]1CCN1S(=O)(=O)c1cc(Cl)cc(Cl)c1 | 24 mL/min/kg | 15% | 3.6 nM | 0.74 nM | 179 nM |
